Consider two compounds from patent US20120189543A1, “Compositions and Methods for Detecting and Treating Implant Loosening and Osteolysis” (priority 2009, published 2012).

Series [1] has as its system pro-inflammatory cytokine response (e.g., TNF and IL-1). Kind of series: Particle-induced pro-inflammatory cytokine response in human monocytes. As to conditions: pretreatment of PMMA challenged monocytes.
Experimental: (§1) Cells were cultured for 24 hours at a cell density of 10^6 cells/mL in a-MEM medium (Invitrogen, Carlsbad, Calif.) supplemented with 10% fetal bovine serum (VWR, West Chester, Pa.) and 1% antibiotic/antimycotic (Invitrogen, Carlsbad, Calif.) in the presence of 10 ng/mL human M-CSF (Peprotech, Rocky Hill, N.J.) in 24-well tissue culture plates (1 mL/well). Cells were then pulsed for 4 hours with P-Dex (5 μM) or free Dex (dexamethasone phosphate sodium, 0.6 μM), washed and replenished with fresh medium. […] After 24 hours, cells were treated +/−PMMA particles (30 particles/cell) for 3 hours. Total cellular RNA was prepared (RNeasy, Qiagen) and analyzed by real-time RT-PCR as previously described for inflammatory cytokines (IL 1-α, IL-1- β).
Series [2] concerns IL-1β mRNA. Description: PMMA particle-induced IL-1β mRNA in cultured human monocytes (real-time RT-PCR). As to conditions: 4 hours pulse P-Dex 5 μM or free Dex 0.6 μM, PMMA 3 hours; n=3.
Experimental: as §1
Series [3] deals with IL-1α mRNA. Description: PMMA particle-induced IL-1α mRNA in cultured human monocytes (real-time RT-PCR). As to conditions: 4 hours pulse P-Dex 5 μM or free Dex 0.6 μM, PMMA 3 hours; n=3; p<0.05. (Real-time PCR tracks product formation cycle by cycle.)
Experimental: as §1
Series [4] deals with PMMA particle implantation site (calvaria). Set-up: species or system Swiss Webster mice. As to conditions: mouse, in vivo. An excerpt: The group injected with PBS was used as a negative control and was given the same dose of P-IRDye. The mice were imaged prior to and daily after contrast agent injection using an XENOGEN IVIS® 200 Series Imaging System (Hopkinton, Mass.) to evaluate the distribution of the HPMA copolymer conjugate continuously for the 6 days.

`C[C@@H]1C[C@H]2[C@@H]3CCC4=CC(=O)C=C[C@]4(C)[C@@]3(F)[C@@H](O)C[C@]2(C)[C@@]1(O)C(=O)COP(=O)([O-])[O-].[Na+].[Na+]` [Dex, dexamethasone phosphate sodium]: the “effect of pretreatment on particle-induced pro-inflammatory cytokine response” value in series [1] is “significant repression”. For the same compound, the “IL-1β mRNA level of PMMA group compared with treated group” value in series [2] is reported as “higher (but not significantly)”. In addition, the “IL-1α mRNA level of PMMA group compared with treated group” value in series [3] is given as “significantly higher”.

Consider “IRDye 800CW-labeled HPMA Copolymer [P-IRDye]”, for which, in series [4], the “NIR signal at particle implantation site, % of the original signal intensity” value turned out to be 60% and the “persistence of the P-IRDye signal” value is on record as “over 7 days”.
